Source: US12319672B2, “Alpha-D-galactopyranoside derivatives” (Idorsia Pharmaceuticals Ltd, priority 2019, dated 2025)

Experiments:
human Gal-1 (hGal-1) = test: Competitive binding assay: binding of biotinylated hGal-1 to microplate-adsorbed asialofetuin (ASF); conditions: Activities on hGal-1; mean values of several measurements
How it was run: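 Spectrophotometric readout (streptavidin-peroxidase, ABTS) of biotinylated galectin retained on ASF-coated wells. Biotinylated hGal-1 or hGal-3, 300-1000 ng/mL, co-incubated with test compound 3 h at 4° C, then washed. Mean IC50 from repeat runs.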

human Gal-3 (hGal-3) = human Gal-3 (hGal-3) (Homo sapiens (Human), UniProt P17931); test: Competitive binding assay: binding of biotinylated hGal-3 to microplate-adsorbed asialofetuin (ASF); conditions: Activity on hGal-3; mean values of several measurements
How it was run: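 Compounds in DMSO dilution series competed with 300-1000 ng/mL biotinylated hGal-3 for asialofetuin adsorbed on the plate (3 h, 4° C). Streptavidin-peroxidase at 80 ng/mL (1 h, 4° C) with ABTS gave a spectrophotometric read-out, and IC50 was reported as the mean of repeat runs.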

human Gal-3 (hGal-3), sequence (P17931 whole entry): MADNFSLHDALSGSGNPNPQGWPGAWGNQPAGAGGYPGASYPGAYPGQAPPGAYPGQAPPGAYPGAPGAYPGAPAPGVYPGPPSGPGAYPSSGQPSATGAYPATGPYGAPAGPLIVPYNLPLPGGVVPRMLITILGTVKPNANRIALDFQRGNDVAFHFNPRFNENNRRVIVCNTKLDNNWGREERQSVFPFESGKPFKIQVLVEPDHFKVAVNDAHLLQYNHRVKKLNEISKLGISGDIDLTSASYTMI
human Gal-1 (hGal-1), sequence (P09382 2-135 limits assumed): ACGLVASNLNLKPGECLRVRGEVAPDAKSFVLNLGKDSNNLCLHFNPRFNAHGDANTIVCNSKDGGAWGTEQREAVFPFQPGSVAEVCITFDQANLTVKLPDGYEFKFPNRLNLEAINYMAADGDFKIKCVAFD

| IC50 (human Gal-1 (hGal-1)) | IC50 (human Gal-3 (hGal-3)) | SMILES |
| --- | --- | --- |
| 2090 nM | 280 nM | CO[C@@H]1[C@@H](n2cc(-c3cc(F)c(F)c(F)c3)nn2)[C@@H](O)[C@@H](CO)O[C@@H]1C[C@@H]1CC(C2CCNCC2)=NO1 [Example 3.06, (2R,3R,4S,5R,6R)-2-(hydroxymethyl)-5-methoxy-6-(((S)-3-(piperidin-4-yl)-4,5-dihydroisoxazol-5-yl)methyl)-4-(4-(3,4,5-trifluorophenyl)-1H-1,2,3-triazol-1-yl)tetrahydro-2H-pyran-3-ol] |
| 15100 nM | 1860 nM | CO[C@@H]1[C@@H](n2cc(-c3cc(F)c(F)c(F)c3)nn2)[C@@H](O)[C@@H](CO)O[C@@H]1C[C@H]1CC(C2CCNCC2)=NO1 [Example 3.07, (2R,3R,4S,5R,6R)-2-(hydroxymethyl)-5-methoxy-6-(((R)-3-(piperidin-4-yl)-4,5-dihydroisoxazol-5-yl)methyl)-4-(4-(3,4,5-trifluorophenyl)-1H-1,2,3-triazol-1-yl)tetrahydro-2H-pyran-3-ol] |
| 12500 nM | 290 nM | OC[C@H]1O[C@H](Cc2cc(C3CCNCC3)on2)[C@H](O)[C@@H](n2cc(-c3cc(F)c(F)c(F)c3)nn2)[C@H]1O [Example 3.08, (2R,3R,4R,5R,6R)-2-(hydroxymethyl)-6-((5-(piperidin-4-yl)isoxazol-3-yl)methyl)-4-(4-(3,4,5-trifluorophenyl)-1H-1,2,3-triazol-1-yl)tetrahydro-2H-pyran-3,5-diol] |
| 5500 nM | 620 nM | CC(=O)N1CCC(C2=NO[C@@H](C[C@H]3O[C@H](CO)[C@H](O)[C@H](n4cc(-c5cc(F)c(F)c(F)c5)nn4)[C@H]3O)C2)CC1 [Example 3.10, 1-(4-((R)-5-(((2R,3R,4R,5R,6R)-3,5-dihydroxy-6-(hydroxymethyl)-4-(4-(3,4,5-trifluorophenyl)-1H-1,2,3-triazol-1-yl)tetrahydro-2H-pyran-2-yl)methyl)-4,5-dihydroisoxazol-3-yl)piperidin-1-yl)ethan-1-one] |
| 1380 nM | 150 nM | CC(=O)N1CCC(C2=NO[C@H](C[C@H]3O[C@H](CO)[C@H](O)[C@H](n4cc(-c5cc(F)c(F)c(F)c5)nn4)[C@H]3O)C2)CC1 [Example 3.11, 1-(4-((S)-5-(((2R,3R,4R,5R,6R)-3,5-dihydroxy-6-(hydroxymethyl)-4-(4-(3,4,5-trifluorophenyl)-1H-1,2,3-triazol-1-yl)tetrahydro-2H-pyran-2-yl)methyl)-4,5-dihydroisoxazol-3-yl)piperidin-1-yl)ethan-1-one] |
| 520 nM | 70 nM | CO[C@@H]1[C@@H](n2cc(-c3cc(F)c(F)c(F)c3)nn2)[C@@H](O)[C@@H](CO)O[C@@H]1C[C@@H]1CC(C2CCN(C(C)=O)CC2)=NO1 [Example 3.12, 1-(4-((S)-5-(((2R,3R,4S,5R,6R)-5-hydroxy-6-(hydroxymethyl)-3-methoxy-4-(4-(3,4,5-trifluorophenyl)-1H-1,2,3-triazol-1-yl)tetrahydro-2H-pyran-2-yl)methyl)-4,5-dihydroisoxazol-3-yl)piperidin-1-yl)ethan-1-one] |
| 4020 nM | 670 nM | CO[C@@H]1[C@@H](n2cc(-c3cc(F)c(F)c(F)c3)nn2)[C@@H](O)[C@@H](CO)O[C@@H]1C[C@H]1CC(C2CCN(C(C)=O)CC2)=NO1 [Example 3.13, 1-(4-((R)-5-(((2R,3R,4S,5R,6R)-5-hydroxy-6-(hydroxymethyl)-3-methoxy-4-(4-(3,4,5-trifluorophenyl)-1H-1,2,3-triazol-1-yl)tetrahydro-2H-pyran-2-yl)methyl)-4,5-dihydroisoxazol-3-yl)piperidin-1-yl)ethan-1-one] |

The remaining lines, values behind:

| SMILES | IC50 (human Gal-1 (hGal-1)) | IC50 (human Gal-3 (hGal-3)) |
| --- | --- | --- |
| CC(C)(C)c1cc(C[C@H]2O[C@H](CO)[C@H](O)[C@H](n3cc(-c4ccc(F)c(F)c4F)nn3)[C@H]2O)on1 [Example 2.49, (2R,3R,4R,5R,6R)-2-((3-(tert-butyl)isoxazol-5-yl)methyl)-6-(hydroxymethyl)-4-(4-(2,3,4-trifluorophenyl)-1H-1,2,3-triazol-1-yl)tetrahydro-2H-pyran-3,5-diol] | 640 nM | 53 nM |
| Cc1ccc(-c2cn([C@H]3[C@@H](O)[C@@H](CO)O[C@H](Cc4cc(C(C)(C)C)no4)[C@@H]3O)nn2)c(F)c1F [Example 2.50, (2R,3R,4R,5R,6R)-2-((3-(tert-butyl)isoxazol-5-yl)methyl)-4-(4-(2,3-difluoro-4-methylphenyl)-1H-1,2,3-triazol-1-yl)-6-(hydroxymethyl)tetrahydro-2H-pyran-3,5-diol] | 6810 nM | 130 nM |
| CCNC(=O)O[C@@H]1[C@@H](n2cc(-c3ccc(C)c(F)c3F)nn2)[C@@H](O)[C@@H](CO)O[C@@H]1Cc1cc(C(C)(C)C)no1 [Example 2.51, (2R,3R,4S,5R,6R)-2-((3-(tert-butyl)isoxazol-5-yl)methyl)-4-(4-(2,3-difluoro-4-methylphenyl)-1H-1,2,3-triazol-1-yl)-5-hydroxy-6-(hydroxymethyl)tetrahydro-2H-pyran-3-yl ethylcarbamate] | > 100000 nM | 46 nM |
| Cc1ccc(-c2cn([C@H]3[C@@H](O)[C@@H](CO)O[C@H](Cc4cc(C(C)(C)C)no4)[C@@H]3OCc3nccn3C)nn2)c(F)c1F [Example 2.52, (2R,3R,4S,5R,6R)-6-((3-(tert-butyl)isoxazol-5-yl)methyl)-4-(4-(2,3-difluoro-4-methylphenyl)-1H-1,2,3-triazol-1-yl)-2-(hydroxymethyl)-5-((1-methyl-1H-imidazol-2-yl)methoxy)tetrahydro-2H-pyran-3-ol] | 5130 nM | 78 nM |
| Cc1ccc(-c2cn([C@H]3[C@@H](O)[C@@H](CO)O[C@H](Cc4cc(C(C)(C)C)no4)[C@@H]3OCc3nccs3)nn2)c(F)c1F [Example 2.53, (2R,3R,4S,5R,6R)-6-((3-(tert-butyl)isoxazol-5-yl)methyl)-4-(4-(2,3-difluoro-4-methylphenyl)-1H-1,2,3-triazol-1-yl)-2-(hydroxymethyl)-5-(thiazol-2-ylmethoxy)tetrahydro-2H-pyran-3-ol] | 1050 nM | 53 nM |
| Cc1ccc(-c2cn([C@H]3[C@@H](O)[C@@H](CO)O[C@H](Cc4cc(C(C)(C)C)no4)[C@@H]3OCc3cscn3)nn2)c(F)c1F [Example 2.54, (2R,3R,4S,5R,6R)-6-((3-(tert-butyl)isoxazol-5-yl)methyl)-4-(4-(2,3-difluoro-4-methylphenyl)-1H-1,2,3-triazol-1-yl)-2-(hydroxymethyl)-5-(thiazol-4-ylmethoxy)tetrahydro-2H-pyran-3-ol] | 590 nM | 52 nM |
| Cc1ccc(-c2cn([C@H]3[C@@H](O)[C@@H](CO)O[C@H](Cc4cc(C(C)(C)C)no4)[C@@H]3OCc3cnco3)nn2)c(F)c1F [Example 2.55, (2R,3R,4S,5R,6R)-6-((3-(tert-butyl)isoxazol-5-yl)methyl)-4-(4-(2,3-difluoro-4-methylphenyl)-1H-1,2,3-triazol-1-yl)-2-(hydroxymethyl)-5-(oxazol-5-ylmethoxy)tetrahydro-2H-pyran-3-ol] | 2720 nM | 120 nM |
| CO[C@@H]1[C@@H](n2cc(-c3cc(F)c(F)c(F)c3)nn2)[C@@H](O)[C@@H](CO)O[C@@H]1Cc1cc(C2(O)CCC2)no1 [Example 2.56, (2R,3R,4S,5R,6R)-6-((3-(1-hydroxycyclobutyl)isoxazol-5-yl)methyl)-2-(hydroxymethyl)-5-methoxy-4-(4-(3,4,5-trifluorophenyl)-1H-1,2,3-triazol-1-yl)tetrahydro-2H-pyran-3-ol] | 1770 nM | 490 nM |
| CO[C@@H]1[C@@H](n2cc(-c3ccc(Cl)c(F)c3F)nn2)[C@@H](O)[C@@H](CO)O[C@@H]1Cc1cc(C2(O)CCC2)no1 [Example 2.59, (2R,3R,4S,5R,6R)-4-(4-(4-chloro-2,3-difluorophenyl)-1H-1,2,3-triazol-1-yl)-6-((3-(1-hydroxycyclobutyl)isoxazol-5-yl)methyl)-2-(hydroxymethyl)-5-methoxytetrahydro-2H-pyran-3-ol] | 2300 nM | 84 nM |
| CO[C@@H]1[C@@H](n2cc(-c3cc(F)c(F)c(F)c3)nn2)[C@@H](O)[C@@H](CO)O[C@@H]1Cc1cc(C(C)(C)O)no1 [Example 2.60, (2R,3R,4S,5R,6R)-2-(hydroxymethyl)-6-((3-(2-hydroxypropan-2-yl)isoxazol-5-yl)methyl)-5-methoxy-4-(4-(3,4,5-trifluorophenyl)-1H-1,2,3-triazol-1-yl)tetrahydro-2H-pyran-3-ol] | 7390 nM | 400 nM |
| CO[C@@H]1[C@@H](n2cc(-c3ccc(F)c(F)c3F)nn2)[C@@H](O)[C@@H](CO)O[C@@H]1Cc1cc(C(C)(C)O)no1 [Example 2.61, (2R,3R,4S,5R,6R)-2-(hydroxymethyl)-6-((3-(2-hydroxypropan-2-yl)isoxazol-5-yl)methyl)-5-methoxy-4-(4-(2,3,4-trifluorophenyl)-1H-1,2,3-triazol-1-yl)tetrahydro-2H-pyran-3-ol] | 780 nM | 110 nM |
| CO[C@@H]1[C@@H](n2cc(-c3ccc(C)c(F)c3F)nn2)[C@@H](O)[C@@H](CO)O[C@@H]1Cc1cc(C(C)(C)O)no1 [Example 2.62, (2R,3R,4S,5R,6R)-4-(4-(2,3-difluoro-4-methylphenyl)-1H-1,2,3-triazol-1-yl)-2-(hydroxymethyl)-6-((3-(2-hydroxypropan-2-yl)isoxazol-5-yl)methyl)-5-methoxytetrahydro-2H-pyran-3-ol] | 2280 nM | 36 nM |
| CO[C@@H]1[C@@H](n2cc(-c3ccc(Cl)c(F)c3F)nn2)[C@@H](O)[C@@H](CO)O[C@@H]1Cc1cc(C(C)(C)O)no1 [Example 2.63, (2R,3R,4S,5R,6R)-4-(4-(4-chloro-2,3-difluorophenyl)-1H-1,2,3-triazol-1-yl)-2-(hydroxymethyl)-6-((3-(2-hydroxypropan-2-yl)isoxazol-5-yl)methyl)-5-methoxytetrahydro-2H-pyran-3-ol] | 1730 nM | 74 nM |
